Measured values from the NIST ThermoML archive (doi:10.1016/j.jct.2008.05.017).

Assay: xn = mol fraction of the nth substance listed
Conditions: Liquid; for mass density: Bellows volumetry; for Critical density: bellows voluometer

N [ammonia] + O
Conditions | mass density [kg/m3]
436.56 K, 14191 kPa, x1 = 0.9098 | 263.5
436.56 K, 14208 kPa, x1 = 0.9098 | 264.8
436.56 K, 14217 kPa, x1 = 0.9098 | 265.4
436.56 K, 14225 kPa, x1 = 0.9098 | 265.9
478.58 K, 17311 kPa, x1 = 0.7757 | 284.3
478.58 K, 17320 kPa, x1 = 0.7757 | 284.7
478.58 K, 17329 kPa, x1 = 0.7757 | 285.1
478.58 K, 17347 kPa, x1 = 0.7757 | 285.8
503.06 K, 18697 kPa, x1 = 0.6808 | 294.8
503.06 K, 18706 kPa, x1 = 0.6808 | 295.2
503.06 K, 18715 kPa, x1 = 0.6808 | 295.6
503.06 K, 18724 kPa, x1 = 0.6808 | 296
503.06 K, 18733 kPa, x1 = 0.6808 | 296.3
503.06 K, 18743 kPa, x1 = 0.6808 | 296.6
503.06 K, 18751 kPa, x1 = 0.6808 | 297

Conditions | Critical density [kg/m3]
x1 = 0.6808 | 294.6
x1 = 0.7757 | 284
x1 = 0.9098 | 262.9
